Results on 23 molecules are retold here after patent US20220363686A1 (AiCuris GmbH & Co. KG, priority 2018, published 2022).

SMILES strings stand for the structures. Like-named read-outs stand apart in the source and are kept apart here.

In one data set the test system is HBV. The data set is described as follows: Determination of HBV DNA from the supernatants of HepAD38 cells (anti-HBV activity). It is filed as cell-based, hepatitis B virus. The note with it: Hepatitis B virus, HePAD38, 144 h, HBV DNA in HepAD38 supernatant, day 6, qPCR, read-out: Cell Activity. The essentials:
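HepAD38 cells (60,000/well) seeded in tetracycline-free medium to induce HBV, treated with half-log serial compound dilutions for 6 days at 37 °C. HBV DNA purified from filtered supernatant and quantified by real-time PCR against HBV plasmid standards; EC50 from relative copy numbers by non-linear regression.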
In general terms: In qPCR the cycle at which signal appears reflects the starting amount.

Data set [1] in a line: Cell viability assay (AlamarBlue). The note with it: human, HepAD38 cells.
For data set [2], the target named is HBV core protein (C-terminal truncated core protein containing 149 amino acids of the N-terminal assembly domain) (UniProt P03146). The data set is described as follows: Biochemical capsid assembly assay (fluorescence quenching). More on the design: rows headed: Assembly Activity; other: BODIPY-FL labelled core protein, assembly started with NaCl, read after 6 min. The note with it: read-out: Assembly Activity; BODIPY-FL labelled core protein, assembly started with NaCl, read after 6 min. The essentials: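 N-terminal assembly domain (residues 1–149) plus C-terminal Cys150, E. coli-expressed, BODIPY-FL-maleimide labelled, used at 1.0–2.0 μM in 50 mM HEPES pH 7.5 with 0.5% DMSO. Assembly started with NaCl ([…]); fluorescence quenching (ex 477/em 525 nm) read after 6 min. 8-point compound series; EC50 by non-linear regression.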
Chain of HBV core protein (C-terminal truncated core protein containing 149 amino acids of the N-terminal assembly domain) (P03146 whole entry, the tested form may be a part): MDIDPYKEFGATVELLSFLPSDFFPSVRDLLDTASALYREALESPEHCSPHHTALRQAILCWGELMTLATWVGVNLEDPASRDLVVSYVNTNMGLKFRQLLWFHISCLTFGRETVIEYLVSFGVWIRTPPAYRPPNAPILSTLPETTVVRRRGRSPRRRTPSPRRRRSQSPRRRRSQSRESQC

As a reminder, the CC50 is the concentration that lowers cell viability or growth by half. Lower therefore signals harm at low concentration. Regarding `CN(C(=O)c1cnn2c1CN(C(=O)c1cc3ccccc3[nH]1)CC2)C1(c2cocn2)CC1` [Example 57, 5-(1H-indole-2-carbonyl)-N-methyl-N-[1-(1,3-oxazol-4-yl)cyclopropyl]-4H,5H,6H,7H-pyrazolo[1,5-a]pyrazine-3-carboxamide], the EC50 in the data set on HBV is less than 1 µM. In data set [1], the CC50 at 6 days is greater than 10 µM. In addition, in data set [2], the IC50 is less than 5 µM.
`O=C(c1cc2ccccc2[nH]1)N1CCn2ncc(C(=O)N3CCC(O)CC34CC4)c2C1` (stereo not drawn) [Example 58, 4-[5-(1H-indole-2-carbonyl)-4H,5H,6H,7H-pyrazolo[1,5-a]pyrazine-3-carbonyl]-4-azaspiro[2.5]octan-7-ol]: the EC50 in the data set on HBV was less than 1 µM. The molecule also had a CC50 at 6 days in data set [1] greater than 10 µM. The IC50 in data set [2] is less than 5 µM.
Consider `O=C(c1cc2ccccc2[nH]1)N1CCn2ncc(C(=O)N3CCC(OC(F)F)CC34CC4)c2C1` (stereo not drawn) [Example 59, 2-{3-[7-(difluoromethoxy)-4-azaspiro[2.5]octane-4-carbonyl]-4H,5H,6H,7H-pyrazolo[1,5-a]pyrazine-5-carbonyl}-1H-indole], for which the EC50 with HBV is less than 1 µM. This molecule also displayed a half-maximal cytotoxic concentration (CC50) at 6 days in data set [1] greater than 10 µM. Also, the IC50 in data set [2] was less than 5 µM.
For `O=C(c1cc2ccccc2[nH]1)N1CCn2ncc(C(=O)N(C3CC3)C3CC3)c2C1` [Example 60, N,N-dicyclopropyl-5-(1H-indole-2-carbonyl)-4H,5H,6H,7H-pyrazolo[1,5-a]pyrazine-3-carboxamide] the same measures were less than 1 µM, greater than 10 µM and less than 5 µM.
For `O=C(NC1(c2ccccn2)CC1)c1cnn2c1CN(C(=O)c1cc3ccccc3[nH]1)CC2` [Example 61, 5-(1H-indole-2-carbonyl)-N-[1-(pyridin-2-yl)cyclopropyl]-4H,5H,6H,7H-pyrazolo[1,5-a]pyrazine-3-carboxamide] the same measures were less than 1 µM, greater than 10 µM and less than 5 µM.
As to `CN(CCOC(F)F)C(=O)c1cnn2c1CN(C(=O)c1cc3ccccc3[nH]1)CC2` [Example 62, N-[2-(difluoromethoxy)ethyl]-5-(1H-indole-2-carbonyl)-N-methyl-4H,5H,6H,7H-pyrazolo[1,5-a]pyrazine-3-carboxamide], the EC50 in the data set on HBV (printed as number instead of class symbol) was greater than 10 µM. For the same molecule, in data set [1], the CC50 at 6 days is greater than 10 µM. Moreover, the IC50 in data set [2] was less than 5 µM.
Take `CN(Cc1ccccc1)C(=O)c1cnn2c1CN(C(=O)c1cc3ccccc3[nH]1)CC2` [Example 63, N-benzyl-5-(1H-indole-2-carbonyl)-N-methyl-4H,5H,6H,7H-pyrazolo[1,5-a]pyrazine-3-carboxamide]: the EC50 with HBV is less than 1 µM. Besides, the CC50 at 6 days in data set [1] was greater than 10 µM. Also, the IC50 in data set [2] is less than 5 µM.
For `CN(C(=O)c1cnn2c1CN(C(=O)c1cc3ccccc3[nH]1)CC2)C1(COCCO)CC1` [Example 64, N-{1-[(2-hydroxyethoxy)methyl]cyclopropyl}-5-(1H-indole-2-carbonyl)-N-methyl-4H,5H,6H,7H-pyrazolo[1,5-a]pyrazine-3-carboxamide] the same measures were less than 1 µM, greater than 10 µM and less than 5 µM.
Consider `CN(C(=O)c1cnn2c1CN(C(=O)c1cc3ccccc3[nH]1)CC2)C1(COCCCO)CC1` [Example 65, N-{1-[(3-hydroxypropoxy)methyl]cyclopropyl}-5-(1H-indole-2-carbonyl)-N-methyl-4H,5H,6H,7H-pyrazolo[1,5-a]pyrazine-3-carboxamide], for which the EC50 with HBV is less than 1 µM. The molecule further had a half-maximal cytotoxic concentration (CC50) at 6 days in data set [1] greater than 10 µM. The IC50 in data set [2] is less than 5 µM.
Take `O=C(c1cc2ccccc2[nH]1)N1CCn2ncc(-c3cscn3)c2C1` [Example 66, 2-[3-(1,3-thiazol-4-yl)-4H,5H,6H,7H-pyrazolo[1,5-a]pyrazine-5-carbonyl]-1H-indole]: in the data set on HBV, the EC50 is less than 1 µM. Further, the CC50 at 6 days in data set [1] is greater than 10 µM. The IC50 in data set [2] was less than 5 µM.
On to `O=C(c1cc2ccccc2[nH]1)N1CCn2ncc(C(=O)N3CCCOCC34CC4)c2C1` [Example 67, 4-[5-(1H-indole-2-carbonyl)-4H,5H,6H,7H-pyrazolo[1,5-a]pyrazine-3-carbonyl]-8-oxa-4-azaspiro[2.6]nonane], for which, in the data set with HBV, the EC50 is less than 1 µM. Moreover, the CC50 at 6 days in data set [1] is greater than 10 µM. In addition, in data set [2], the IC50 is less than 5 µM.
For `O=C(c1cc2ccccc2[nH]1)N1CCn2ncc(C(=O)N3CCOCCC34CC4)c2C1` [Example 68, 4-[5-(1H-indole-2-carbonyl)-4H,5H,6H,7H-pyrazolo[1,5-a]pyrazine-3-carbonyl]-7-oxa-4-azaspiro[2.6]nonane] the same measures were less than 1 µM, greater than 10 µM and less than 5 µM.
For `O=C(c1cc2ccccc2[nH]1)N1CCn2ncc(C(=O)N3CCOC(F)(F)C3)c2C1` [Example 69, 2-[3-(2,2-difluoromorpholine-4-carbonyl)-4H,5H,6H,7H-pyrazolo[1,5-a]pyrazine-5-carbonyl]-1H-indole], in that order: less than 1 µM, greater than 10 µM and less than 5 µM.
For `CN(C(=O)c1cnn2c1CN(C(=O)c1cc3ccccc3[nH]1)CC2)C1(c2cccnc2)CC1` [Example 72, 5-(1H-indole-2-carbonyl)-N-methyl-N-[1-(pyridin-3-yl)cyclopropyl]-4H,5H,6H,7H-pyrazolo[1,5-a]pyrazine-3-carboxamide], in that order: less than 1 µM, greater than 10 µM and less than 5 µM.
In the case of `O=C(c1cc2ccccc2[nH]1)N1CCn2ncc(C3CCCO3)c2C1` (stereo not drawn) [Example 73, 2-[3-(oxolan-2-yl)-4H,5H,6H,7H-pyrazolo[1,5-a]pyrazine-5-carbonyl]-1H-indole], the EC50 with HBV is less than 1 µM. The 50% cytotoxic concentration (CC50) at 6 days in data set [1] is greater than 10 µM. For the same molecule, in data set [2], the IC50 is less than 5 µM.
For `CN(C(=O)c1cnn2c1CN(C(=O)c1cc3ccccc3[nH]1)CC2)C1CC1` [Example 74, N-cyclopropyl-5-(1H-indole-2-carbonyl)-N-methyl-4H,5H,6H,7H-pyrazolo[1,5-a]pyrazine-3-carboxamide] the same measures were less than 1 µM, greater than 10 µM and less than 5 µM.
Take `O=C(c1cc2ccccc2[nH]1)N1CCn2ncc(C(=O)N(CCO)C3(CO)CC3)c2C1` [Example 75, N-(2-hydroxyethyl)-N-[1-(hydroxymethyl)cyclopropyl]-5-(1H-indole-2-carbonyl)-4H,5H,6H,7H-pyrazolo[1,5-a]pyrazine-3-carboxamide]: the EC50 in the data set with HBV is less than 1 µM. Also, in data set [1], the CC50 at 6 days is greater than 10 µM. The IC50 in data set [2] is less than 5 µM.
For `O=C(c1cc2ccccc2[nH]1)N1CCn2ncc(N3CCC4(CC4)C3=O)c2C1` [Example 76, 5-[5-(1H-indole-2-carbonyl)-4H,5H,6H,7H-pyrazolo[1,5-a]pyrazin-3-yl]-5-azaspiro[2.4]heptan-4-one], in that order: 1 to 10 µM, greater than 10 µM and 5 to 10 µM.
For `CN(CCO)C(=O)c1cnn2c1CN(C(=O)c1cc3ccccc3[nH]1)CC2` [Example 77, N-(2-hydroxyethyl)-5-(1H-indole-2-carbonyl)-N-methyl-4H,5H,6H,7H-pyrazolo[1,5-a]pyrazine-3-carboxamide] the same measures were less than 1 µM, greater than 10 µM and less than 5 µM.
As to `C[C@H](NC(=O)c1cnn2c1CN(C(=O)c1cc3ccccc3[nH]1)CC2)C(F)(F)F` [Example 78, 5-(1H-indole-2-carbonyl)-N-[(2S)-1,1,1-trifluoropropan-2-yl]-4H,5H,6H,7H-pyrazolo[1,5-a]pyrazine-3-carboxamide], the EC50 in the data set with HBV was less than 1 µM. The same molecule displayed a CC50 at 6 days in data set [1] greater than 10 µM. Moreover, the IC50 in data set [2] is less than 5 µM.
On to `C[C@@H](NC(=O)c1cnn2c1CN(C(=O)c1cc3ccccc3[nH]1)CC2)C(F)(F)F` [Example 79, 5-(1H-indole-2-carbonyl)-N-[(2R)-1,1,1-trifluoropropan-2-yl]-4H,5H,6H,7H-pyrazolo[1,5-a]pyrazine-3-carboxamide], for which the EC50 in the data set on HBV was less than 1 µM. Also, the cytotoxic concentration (CC50) at 6 days in data set [1] is greater than 10 µM. The IC50 in data set [2] is less than 5 µM.
For `CN(C(=O)c1cnn2c1CN(C(=O)c1cc3ccccc3[nH]1)CC2)C1(CNCC(F)(F)F)CC1` [Example 80, 5-(1H-indole-2-carbonyl)-N-methyl-N-(1-{[(2,2,2-trifluoroethyl)amino]methyl}cyclopropyl)-4H,5H,6H,7H-pyrazolo[1,5-a]pyrazine-3-carboxamide] the same measures were less than 1 µM, greater than 10 µM and less than 5 µM.
For `CN(C(=O)c1cnn2c1CN(C(=O)c1cc3c(F)c(F)ccc3[nH]1)CC2)C1(CO)CC1` [Example 81, 5-(4,5-difluoro-1H-indole-2-carbonyl)-N-[1-(hydroxymethyl)cyclopropyl]-N-methyl-4H,5H,6H,7H-pyrazolo[1,5-a]pyrazine-3-carboxamide], in that order: less than 1 µM, greater than 10 µM and less than 5 µM.
